What was measured:
Rattus norvegicus = test: Decrease in plasma protein extravasation in fasted Harlan Sprague-Dawley rat model of migraine compound administered via oral gavage 1 hr prior to electrical stimulation of trigeminal ganglion measured after 15 mins by FITC-BSA based fluorescence assay; type: functional
[1] = target: T1, Cysteinyl leukotriene receptor 1 (Homo sapiens, UniProt Q9Y271); test: Antagonist activity at human CysLT1 receptor expressed in Syrian hamster AV12-664 cells assessed as decrease in LTD4-induced intracellular calcium level pretreated followed by LTD4 addition by fluo-3 dye based FLIPR assay; type: functional, cell-based
T1 sequence (Q9Y271 whole entry): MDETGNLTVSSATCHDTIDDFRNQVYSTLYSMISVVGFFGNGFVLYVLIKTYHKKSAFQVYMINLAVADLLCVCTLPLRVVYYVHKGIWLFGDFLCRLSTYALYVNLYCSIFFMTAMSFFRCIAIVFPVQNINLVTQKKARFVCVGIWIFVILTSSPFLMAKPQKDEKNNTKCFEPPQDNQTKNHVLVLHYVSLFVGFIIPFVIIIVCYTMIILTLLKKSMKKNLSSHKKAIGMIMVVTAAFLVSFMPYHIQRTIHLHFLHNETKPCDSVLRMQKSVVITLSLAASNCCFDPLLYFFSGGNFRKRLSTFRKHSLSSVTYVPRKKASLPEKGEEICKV

[2] = target: T2, Metabotropic glutamate receptor 2 (Homo sapiens, UniProt Q14416); test: Positive allosteric modulation of recombinant human mGlu2 receptor expressed in hamster AV12 cells expressing EAAT1 assessed as potentiation of glutamate-induced intracellular calcium level measured after 24 to 48 hrs by FLIPR assay; type: functional, cell-based
Target sequence in this assay (Q14416 whole entry): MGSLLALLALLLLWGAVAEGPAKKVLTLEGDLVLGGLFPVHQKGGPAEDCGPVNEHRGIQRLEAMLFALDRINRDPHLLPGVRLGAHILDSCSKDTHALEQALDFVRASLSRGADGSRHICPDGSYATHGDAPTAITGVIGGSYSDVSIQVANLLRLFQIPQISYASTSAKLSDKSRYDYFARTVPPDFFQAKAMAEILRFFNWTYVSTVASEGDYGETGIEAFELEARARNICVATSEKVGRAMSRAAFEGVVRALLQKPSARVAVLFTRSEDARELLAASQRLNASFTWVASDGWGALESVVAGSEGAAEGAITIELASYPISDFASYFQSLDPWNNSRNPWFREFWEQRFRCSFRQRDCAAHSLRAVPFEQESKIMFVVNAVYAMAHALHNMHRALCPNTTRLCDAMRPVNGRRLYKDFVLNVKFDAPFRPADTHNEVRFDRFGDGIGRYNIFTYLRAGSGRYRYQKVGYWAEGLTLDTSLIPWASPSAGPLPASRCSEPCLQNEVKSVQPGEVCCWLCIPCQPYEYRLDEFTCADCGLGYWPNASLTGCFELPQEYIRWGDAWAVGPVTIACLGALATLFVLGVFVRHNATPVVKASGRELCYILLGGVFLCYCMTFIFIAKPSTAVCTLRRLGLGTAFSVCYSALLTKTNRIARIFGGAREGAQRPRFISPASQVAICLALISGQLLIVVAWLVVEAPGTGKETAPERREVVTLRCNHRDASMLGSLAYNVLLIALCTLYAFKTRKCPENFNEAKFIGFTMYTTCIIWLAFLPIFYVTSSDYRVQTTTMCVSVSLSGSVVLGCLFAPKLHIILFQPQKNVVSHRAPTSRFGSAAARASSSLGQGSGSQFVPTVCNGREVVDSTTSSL

[3] = target: T2, Metabotropic glutamate receptor 2; test: Positive allosteric modulation of recombinant human mGlu2 receptor expressed in hamster AV12 cells expressing EAAT1 assessed as potentiation of glutamate-induced intracellular calcium level measured after 24 to 48 hrs by FLIPR assay relative to glutamate; type: functional, cell-based
Target sequence in this assay (Q14416 19-872 limits assumed): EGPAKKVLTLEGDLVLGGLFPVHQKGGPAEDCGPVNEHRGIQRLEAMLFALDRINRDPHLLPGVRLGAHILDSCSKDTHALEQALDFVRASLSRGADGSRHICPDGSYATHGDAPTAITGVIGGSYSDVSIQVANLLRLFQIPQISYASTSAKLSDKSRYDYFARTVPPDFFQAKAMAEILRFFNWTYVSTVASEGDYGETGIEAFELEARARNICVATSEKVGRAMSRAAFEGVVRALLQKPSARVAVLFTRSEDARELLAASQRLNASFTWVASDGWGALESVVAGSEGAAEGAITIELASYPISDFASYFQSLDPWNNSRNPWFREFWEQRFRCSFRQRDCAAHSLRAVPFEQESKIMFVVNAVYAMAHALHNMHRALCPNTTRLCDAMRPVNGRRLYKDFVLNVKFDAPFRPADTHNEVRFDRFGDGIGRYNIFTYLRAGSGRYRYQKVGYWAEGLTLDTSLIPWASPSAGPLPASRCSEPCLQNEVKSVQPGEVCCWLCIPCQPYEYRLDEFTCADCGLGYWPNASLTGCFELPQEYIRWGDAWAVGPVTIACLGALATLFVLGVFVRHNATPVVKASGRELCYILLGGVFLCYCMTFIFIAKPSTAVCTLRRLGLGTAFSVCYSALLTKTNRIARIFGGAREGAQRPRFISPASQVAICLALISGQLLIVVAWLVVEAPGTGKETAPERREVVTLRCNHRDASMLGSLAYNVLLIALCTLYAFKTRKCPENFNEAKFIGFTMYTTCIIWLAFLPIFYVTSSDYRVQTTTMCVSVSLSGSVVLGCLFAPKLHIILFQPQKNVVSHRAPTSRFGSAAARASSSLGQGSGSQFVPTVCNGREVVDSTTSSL

[4] = Ratio of Cmax in rat to EC50 for human mGlu2 receptor expressed in hamster AV12 cells expressing EAAT1
[5] = Oral bioavailability in rat at 1 mg/kg; type: ADME, organism-based; conditions: in vivo
[6] = Ratio of Cmax in rat to EC50 for human CysLT1 expressed in Syrian hamster AV12-664 cells
[7] = Tmax in rat at 1 mg/kg, po; type: ADME, organism-based; conditions: in vivo
[8] = Cmax in rat at 1 mg/kg, po; type: ADME, organism-based; design: dose 1 mg/kg, route oral; conditions: in vivo

SMILES: CNS(=O)(=O)Cc1ccc2[nH]cc(CCN(C)C)c2c1 [SUMATRIPTAN]
- ID100 (Rattus norvegicus): 1 mg/kg

SMILES: CCCc1c(OCc2cccc(Oc3ccc(-c4nn[nH]n4)cn3)c2)ccc(C(C)=O)c1O
- IC50 [1]: 203 nM
- EC50 [2]: 319 nM
- Emax [3]: 80%

SMILES: CCCc1c(OCc2cccc(Oc3cc(C(=O)O)ccn3)c2)ccc(C(C)=O)c1O
- IC50 [1]: 73.6 nM
- EC50 [2]: 404 nM
- Emax [3]: 91%

SMILES: CCCc1c(OCc2ccc(Oc3cc(-c4nn[nH]n4)ccn3)cc2)ccc(C(C)=O)c1O
- IC50 [1]: 200 nM
- EC50 [2]: 470 nM
- Emax [3]: 88 to 89%

SMILES: CC(=O)c1ccc(OCc2ccc(Oc3cccc(-c4nn[nH]n4)c3)cc2)c(C)c1O
- Ratio [4]: 3.08
- IC50 [1]: 1430 nM
- bioavailability [5]: 88%
- EC50 [2]: 293 to 336 nM
- Emax [3]: 85%
- Activity (Rattus norvegicus): Dose-dependent effect
- ID100 (Rattus norvegicus): 0.1 mg/kg
- Ratio [6]: 0.73
- Tmax [7]: 42 min
- Cmax [8]: 430 ng/mL

SMILES: CC(=O)c1ccc(OCc2cccc(Oc3ccc(-c4nn[nH]n4)cn3)c2)c(Cl)c1O
- IC50 [1]: 475 nM
- EC50 [2]: 39.3 nM
- Emax [3]: 90%

SMILES: CC(=O)c1ccc(OCc2cccc(Oc3cc(-c4nn[nH]n4)ccn3)c2)c(Cl)c1O
- IC50 [1]: 342 nM
- EC50 [2]: 87.4 nM
- Emax [3]: 101%

SMILES: CC(=O)c1ccc(OCc2cccc(Oc3cc(-c4nn[nH]n4)ccn3)c2)c(C(F)(F)F)c1O
- Ratio [4]: 8.52
- IC50 [1]: 112 nM
- bioavailability [5]: 38%
- EC50 [2]: 6 to 6.4 nM
- Emax [3]: 81%
- Activity (Rattus norvegicus): Dose-dependent effect
- ID100 (Rattus norvegicus): 0.01 mg/kg
- Ratio [6]: 0.46
- Tmax [7]: 24 min
- Cmax [8]: 24.1 ng/mL

SMILES: CCCc1c(OCc2ccc(Oc3ccc(C(=O)O)cn3)cc2)ccc(C(C)=O)c1O
- IC50 [1]: 132 nM
- EC50 [2]: 1430 nM
- Emax [3]: 96%

SMILES: CC(=O)c1ccc(OCc2cccc(Oc3ccc(-c4nn[nH]n4)cn3)c2)c(C(F)(F)F)c1O
- IC50 [1]: 144 nM
- EC50 [2]: 17.9 nM
- Emax [3]: 85%

SMILES: CCCc1c(OCc2cccc(Oc3cc(-c4nn[nH]n4)ccn3)c2)ccc(C(C)=O)c1O
- IC50 [1]: 62.4 nM
- EC50 [2]: 110 nM
- Emax [3]: 90 to 96%

SMILES: CCCc1c(OCc2ccc(Oc3ncccc3-c3nn[nH]n3)cc2)ccc(C(C)=O)c1O
- IC50 [1]: 330 nM
- EC50 [2]: 310 nM
- Emax [3]: 87%

SMILES: CCCc1c(OCc2ccc(Oc3ccc(-c4nn[nH]n4)cn3)cc2)ccc(C(C)=O)c1O
- IC50 [1]: 346 nM
- EC50 [2]: 682 nM
- Emax [3]: 94%

SMILES: CCCc1c(OCc2cccc(Oc3ncccc3-c3nn[nH]n3)c2)ccc(C(C)=O)c1O
- IC50 [1]: 390 nM
- EC50 [2]: 227 nM
- Emax [3]: 85%

SMILES: CC(=O)c1ccc(OCc2cccc(Oc3ccc(-c4nn[nH]n4)cn3)c2)c(F)c1O
- IC50 [1]: 1500 nM
- EC50 [2]: 1080 nM
- Emax [3]: 91%

SMILES: CCCc1c(OCc2ccc(Oc3cccc(-c4nn[nH]n4)c3)nc2)ccc(C(C)=O)c1O
- IC50 [1]: 484 nM
- EC50 [2]: 562 nM
- Emax [3]: 74%

Reference: ChEMBL document CHEMBL3872247, “Discovery of dual positive allosteric modulators (PAMs) of the metabotropic glutamate 2 receptor and CysLT1 antagonists for treating migraine headache” (Bioorg Med Chem Lett, 2017)
